# Assay results published in patent publication US20230049952A1, “METHODS AND COMPOUNDS FOR RESTORING MUTANT P53 FUNCTION” (PMV Pharmaceuticals, Inc., priority 2020, published 2023).
# System: p53 signaling pathway in MT373 tumors
# Test: MT373 syngeneic sarcoma model: mouse p53 signaling pathway profiling panel
# Assay type: in vivo
# Conditions: MT373 tumors
compound,measurement,setting,value
"CCn1c(C#CCNc2ccccc2)cc2cc(CNC3CCN(C)CC3)ccc21 [Compound 1, 1-Anilino-3-{1-ethyl-5-[(1-methyl-4-piperidylamino)methyl]-1H-indol-2-yl}-2-propyne]","Wt1 mRNA, Fold Increase Over Vehicle Control or Percent Reduction Compared to Vehicle Control (%)","75 mg/kg BIDx1, 72 h",23.33 fold or %
same,"Zmat3 mRNA, Fold Increase Over Vehicle Control or Percent Reduction Compared to Vehicle Control (%)","75 mg/kg BIDx1, 72 h",1.10 fold or %
same,"Actb* mRNA (housekeeping or reference gene), Fold Increase Over Vehicle Control or Percent Reduction Compared to Vehicle Control (%)","150 mg/kg BIDx1, 8 h",1.00 fold or %
same,"B2m* mRNA (housekeeping or reference gene), Fold Increase Over Vehicle Control or Percent Reduction Compared to Vehicle Control (%)","150 mg/kg BIDx1, 8 h",1.05 fold or %
same,"Gapdh* mRNA (housekeeping or reference gene), Fold Increase Over Vehicle Control or Percent Reduction Compared to Vehicle Control (%)","150 mg/kg BIDx1, 8 h",1.02 fold or %
same,"Gusb* mRNA (housekeeping or reference gene), Fold Increase Over Vehicle Control or Percent Reduction Compared to Vehicle Control (%)","150 mg/kg BIDx1, 8 h",1.02 fold or %
same,"Hsp90ab1* mRNA (housekeeping or reference gene), Fold Increase Over Vehicle Control or Percent Reduction Compared to Vehicle Control (%)","150 mg/kg BIDx1, 8 h",9.13 fold or %
same,"MGDC* (housekeeping or reference gene), Fold Increase Over Vehicle Control or Percent Reduction Compared to Vehicle Control (%)","150 mg/kg BIDx1, 8 h",1.00 fold or %
same,"Trp63 mRNA, Fold Increase Over Vehicle Control or Percent Reduction Compared to Vehicle Control (%)","150 mg/kg BIDx1, 8 h",1.02 fold or %
same,"Trp73 mRNA, Fold Increase Over Vehicle Control or Percent Reduction Compared to Vehicle Control (%)","150 mg/kg BIDx1, 8 h",1.00 fold or %
same,"Wt1 mRNA, Fold Increase Over Vehicle Control or Percent Reduction Compared to Vehicle Control (%)","150 mg/kg BIDx1, 8 h",30.29 fold or %
same,"Zmat3 mRNA, Fold Increase Over Vehicle Control or Percent Reduction Compared to Vehicle Control (%)","150 mg/kg BIDx1, 8 h",6.69 fold or %
same,"Actb* mRNA (housekeeping or reference gene), Fold Increase Over Vehicle Control or Percent Reduction Compared to Vehicle Control (%)","150 mg/kg BIDx1, 24 h",1.11 fold or %
same,"B2m* mRNA (housekeeping or reference gene), Fold Increase Over Vehicle Control or Percent Reduction Compared to Vehicle Control (%)","150 mg/kg BIDx1, 24 h",1.11 fold or %
same,"Gapdh* mRNA (housekeeping or reference gene), Fold Increase Over Vehicle Control or Percent Reduction Compared to Vehicle Control (%)","150 mg/kg BIDx1, 24 h",14.16 fold or %
same,"Gusb* mRNA (housekeeping or reference gene), Fold Increase Over Vehicle Control or Percent Reduction Compared to Vehicle Control (%)","150 mg/kg BIDx1, 24 h",1.25 fold or %
same,"Hsp90ab1* mRNA (housekeeping or reference gene), Fold Increase Over Vehicle Control or Percent Reduction Compared to Vehicle Control (%)","150 mg/kg BIDx1, 24 h",24.42 fold or %
same,"MGDC* (housekeeping or reference gene), Fold Increase Over Vehicle Control or Percent Reduction Compared to Vehicle Control (%)","150 mg/kg BIDx1, 24 h",1.00 fold or %
same,"Trp63 mRNA, Fold Increase Over Vehicle Control or Percent Reduction Compared to Vehicle Control (%)","150 mg/kg BIDx1, 24 h",1.00 fold or %
same,"Trp73 mRNA, Fold Increase Over Vehicle Control or Percent Reduction Compared to Vehicle Control (%)","150 mg/kg BIDx1, 24 h",1.00 fold or %
same,"Wt1 mRNA, Fold Increase Over Vehicle Control or Percent Reduction Compared to Vehicle Control (%)","150 mg/kg BIDx1, 24 h",21.51 fold or %
same,"Zmat3 mRNA, Fold Increase Over Vehicle Control or Percent Reduction Compared to Vehicle Control (%)","150 mg/kg BIDx1, 24 h",6.17 fold
same,"Actb* mRNA (housekeeping or reference gene), Fold Increase Over Vehicle Control or Percent Reduction Compared to Vehicle Control (%)","150 mg/kg BIDx1, 48 h",1.04 fold or %
same,"B2m* mRNA (housekeeping or reference gene), Fold Increase Over Vehicle Control or Percent Reduction Compared to Vehicle Control (%)","150 mg/kg BIDx1, 48 h",1.20 fold or %
same,"Gapdh* mRNA (housekeeping or reference gene), Fold Increase Over Vehicle Control or Percent Reduction Compared to Vehicle Control (%)","150 mg/kg BIDx1, 48 h",27.30 fold or %
same,"Gusb* mRNA (housekeeping or reference gene), Fold Increase Over Vehicle Control or Percent Reduction Compared to Vehicle Control (%)","150 mg/kg BIDx1, 48 h",1.39 fold or %
same,"Hsp90ab1* mRNA (housekeeping or reference gene), Fold Increase Over Vehicle Control or Percent Reduction Compared to Vehicle Control (%)","150 mg/kg BIDx1, 48 h",19.96 fold or %
same,"MGDC* (housekeeping or reference gene), Fold Increase Over Vehicle Control or Percent Reduction Compared to Vehicle Control (%)","150 mg/kg BIDx1, 48 h",1.00 fold or %
same,"Trp63 mRNA, Fold Increase Over Vehicle Control or Percent Reduction Compared to Vehicle Control (%)","150 mg/kg BIDx1, 48 h",1.00 fold or %
same,"Trp73 mRNA, Fold Increase Over Vehicle Control or Percent Reduction Compared to Vehicle Control (%)","150 mg/kg BIDx1, 48 h",1.00 fold or %
same,"Wt1 mRNA, Fold Increase Over Vehicle Control or Percent Reduction Compared to Vehicle Control (%)","150 mg/kg BIDx1, 48 h",21.51 fold or %
same,"Zmat3 mRNA, Fold Increase Over Vehicle Control or Percent Reduction Compared to Vehicle Control (%)","150 mg/kg BIDx1, 48 h",1.36 fold or %
same,"Actb* mRNA (housekeeping or reference gene), Fold Increase Over Vehicle Control or Percent Reduction Compared to Vehicle Control (%)","150 mg/kg BIDx1, 72 h",1.04 fold or %
same,"B2m* mRNA (housekeeping or reference gene), Fold Increase Over Vehicle Control or Percent Reduction Compared to Vehicle Control (%)","150 mg/kg BIDx1, 72 h",1.18 fold or %
same,"Gapdh* mRNA (housekeeping or reference gene), Fold Increase Over Vehicle Control or Percent Reduction Compared to Vehicle Control (%)","150 mg/kg BIDx1, 72 h",19.69 fold or %
same,"Gusb* mRNA (housekeeping or reference gene), Fold Increase Over Vehicle Control or Percent Reduction Compared to Vehicle Control (%)","150 mg/kg BIDx1, 72 h",1.27 fold or %
same,"Hsp90ab1* mRNA (housekeeping or reference gene), Fold Increase Over Vehicle Control or Percent Reduction Compared to Vehicle Control (%)","150 mg/kg BIDx1, 72 h",1.00 fold or %
same,"MGDC* (housekeeping or reference gene), Fold Increase Over Vehicle Control or Percent Reduction Compared to Vehicle Control (%)","150 mg/kg BIDx1, 72 h",1.53 fold or %
same,"Trp63 mRNA, Fold Increase Over Vehicle Control or Percent Reduction Compared to Vehicle Control (%)","150 mg/kg BIDx1, 72 h",1.67 fold or %
same,"Trp73 mRNA, Fold Increase Over Vehicle Control or Percent Reduction Compared to Vehicle Control (%)","150 mg/kg BIDx1, 72 h",1.00 fold or %
same,"Wt1 mRNA, Fold Increase Over Vehicle Control or Percent Reduction Compared to Vehicle Control (%)","150 mg/kg BIDx1, 72 h",21.51 fold or %
same,"Zmat3 mRNA, Fold Increase Over Vehicle Control or Percent Reduction Compared to Vehicle Control (%)","150 mg/kg BIDx1, 72 h",1.21 fold or %
